From PMC8380238, “Structure-based virtual screening of CYP1A1 inhibitors: towards rapid tier-one assessment of potential developmental toxicants” (Archives of Toxicology, 2021)
pIC50, pKi: −log10 of the molar value. Where two headings read alike, the source gives them in different places.

Assays:
[1] = biological target: T1, human recombinant CYP1A1 (rCYP1A1) (Homo sapiens, UniProt P04798); test: CYP1A1 activity assay: inhibition of CEC metabolism (IC50)
T1 sequence (P04798 1-512): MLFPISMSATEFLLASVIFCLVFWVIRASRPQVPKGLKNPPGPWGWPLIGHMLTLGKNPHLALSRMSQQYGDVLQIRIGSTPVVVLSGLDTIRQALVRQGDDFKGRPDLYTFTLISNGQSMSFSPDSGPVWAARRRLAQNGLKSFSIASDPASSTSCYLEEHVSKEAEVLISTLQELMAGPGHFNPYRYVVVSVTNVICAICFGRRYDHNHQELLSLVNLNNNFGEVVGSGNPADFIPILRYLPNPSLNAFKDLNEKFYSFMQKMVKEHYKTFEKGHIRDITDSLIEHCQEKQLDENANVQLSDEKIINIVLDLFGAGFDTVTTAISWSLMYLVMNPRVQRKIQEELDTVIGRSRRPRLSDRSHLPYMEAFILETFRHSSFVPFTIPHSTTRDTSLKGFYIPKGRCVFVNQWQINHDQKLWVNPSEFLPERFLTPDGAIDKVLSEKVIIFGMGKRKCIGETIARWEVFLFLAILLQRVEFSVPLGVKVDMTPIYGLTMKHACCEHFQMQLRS

[2] = biological target: T1, human recombinant CYP1A1 (rCYP1A1)
CYP1A1 [3] = settings: cited from earlier work
[4] = biological target: T1, human recombinant CYP1A1 (rCYP1A1); test: CYP1A1 activity assay repeated at six CEC concentrations (Ki, α, mode of inhibition)
[5] = biological target: T1, human recombinant CYP1A1 (rCYP1A1); settings: recombinant enzyme
human CYP1A1 = settings: cited from earlier work
CYP1A1 [6] = settings: cited from earlier work; remark: listed apart in the source
[7] = CYP1A1 IC50 (range of colour key, Fig. 5a)
[8] = CYP1A1 Ki (range of colour key, Fig. 5b)

Row | Compound | pIC50 [1, 7] | pIC50 ([1]; IC50) | MOI (mode of inhibition) [2] | α (degree to which the binding of inhibitor changes the affinity of the enzyme for substrate) [4] | pKi [4, 8] | pKi ([4]; Ki) | also measured
1 | CC(=O)[C@H]1CC[C@H]2[C@@H]3CCC4=CC(=O)CC[C@]4(C)[C@H]3CC[C@]12C [Progesterone, reference compound] | 4.00 to 5.00 | 4.39 | Competitive | 4.3 | 4.70 to 4.82 | 4.70 | CYP1A1 substrate category (CYP1A1 [3]): weak
2 | O=P1(N(CCCl)CCCl)NCCCO1 (stereo not shown) [Cyclophosphamide, reference compound] | ≤ 3.00 |  |  |  |  |  | IC50 [5]: ∞
3 | CCOc1ccc2cc(C#N)c(=O)oc2c1 [CEC, 3-cyano-7-ethoxycoumarin] |  |  |  |  |  |  | activity of human CYP1A1 on the fluorometric substrate (human CYP1A1): 40.2 pmol/min/pmol CYP1A1
4 | O=c1ccc2nc3ccc(OCc4ccccc4)cc3oc-2c1 [BzRes, resorufin benzyl ether] |  |  |  |  |  |  | activity of human CYP1A1 on the fluorometric substrate (human CYP1A1; ref Stresser et al. [2002]): 0.457 pmol/min/pmol CYP1A1
5 | CCCCc1oc2ccccc2c1C(=O)c1cc(I)c(OCCNCC)c(I)c1 [DEA, desethylamiodarone] |  |  |  |  |  |  | pKi (CYP1A1 [6]): 5.82; α (CYP1A1 [6]): 5.7
6 | CCCOC(=O)c1ccc(O)cc1 [Propyl paraben] | 4.00 to 5.00 | 4.41 | Competitive | 6.2 | 4.70 to 4.82 | 4.77 | 
7 | COc1ccc2[nH]cc(CCNC(C)=O)c2c1 [Melatonin] |  |  |  |  |  |  | CYP1A1 substrate category (CYP1A1 [3]): strong
8 | C[C@]12CC[C@H]3[C@@H](CCC4=CC(=O)CC[C@@]43C)[C@@H]1CC[C@@H]2O [Testosterone] |  |  |  |  |  |  | CYP1A1 substrate category (CYP1A1 [3]): weak
9 | C=CC(=C)CCC=C(C)C [β-Myrcene] | 4.00 to 5.00 | 4.28 | Mixed | 3.5 | 4.82 to 5.00 | 4.96 | 
10 | CC(=O)N1CCN(c2ccc(OCC3COC(Cn4ccnc4)(c4ccc(Cl)cc4Cl)O3)cc2)CC1 (stereo not shown) [Ketoconazole, reference compound] |  | 7.00 | Noncompetitive | 0.68 |  | 6.96 | 
11 | CC(C)(c1ccc(O)cc1)c1ccc(O)cc1 [Bisphenol A] | 5.00 to 6.00 | 5.62 | Competitive | 9.1 |  | 6.28 | 
12 | C[C@]12CC[C@@H]3c4ccc(O)cc4CC[C@H]3[C@@H]1CC[C@@H]2O [Estradiol, reference compound] | 4.00 to 5.00 | 4.37 | Competitive | 4.3 | 4.82 to 5.00 | 4.89 | CYP1A1 substrate category (CYP1A1 [3]): strong
13 | CCOC(=O)c1ccccc1C(=O)OCC [Diethyl phthalate] | 4.00 to 5.00 | 4.42 | Competitive |  | 4.82 to 5.00 | 5.00 | 
14 | C[C@]12CC[C@@H]3c4ccc(O)cc4CC[C@H]3[C@@H]1C[C@@H](O)[C@@H]2O [Estriol] | ≤ 3.00 |  |  |  |  |  | IC50 [5]: ∞
15 | CC(O)(CS(=O)(=O)c1ccc(F)cc1)C(=O)Nc1ccc(C#N)c(C(F)(F)F)c1 (stereo not shown) [Bicalutamide, reference compound] | 4.00 to 5.00 | 4.85 | Mixed |  | 5.00 to 6.00 | 5.18 | 
